Laboratory results as given in patent publication US6943000B2, “JNK3 modulators and methods of use” (priority 1997, dated 2005).

Tests used:
Type in all cases: in vivo, mouse
[1] = tested on: AP-1 transcriptional activity; test: KA-induced AP-1 transcriptional activity (luciferase assay, AP1-luc mice); details: KA 30 mg/kg i.p.
Excerpt: Since the phosphorylation of c-Jun is an important initial event during the induction of AP-1 transcriptional activity (Whitemarsh et al., supra; Yang et al., supra), whether the observed attenuation of c-Jun phosphorylation would lead to decreased induction of AP-1 transcriptional activity in JNK3 (−/−) mice was examined. JNK(-1-) mice were crossed with transgenic AP-1 luciferase (AP1-luc) mice (Rincon et al., Embo. J. 13:4370-4381, 1994) and progeny back crossed. The JNK3(−/−)/API-Luc(−/+) mice were used in experiments with JNK3(+/+) mice to compare the level of KA-induced AP-1 transcriptional activity in the presence or absence of JNK3. The AP1-luc mice contain the firefly luciferase gene under the control of four copies of a consensus AP-1 binding site in the context of the minimal rat prolactin promoter. It has been established that the expression of luciferase in these mice is due to the presence of the AP-1 regulatory element.
In the luciferase assay, mice were sacrificed at intervals after injection of KA (30 mg/kg, i.p.), and relative luciferase activity compared with that detected in hippocampal lysates obtained from mice injected with vehicle (saline). Mice were decapitated, brains were dissected, and brain tissues were immediately lysed in buffer containing 25 mM Hepes pH 7.4, 1% TRITON®X-100, 1 mM EDTA, 1 mM phenylmethyl sulfonyl fluoride, and 10 μg/ml leupeptin (Promega, Madison, Wis.). Luciferase activity was measured as described in Rincon and Flavell (Embo. J. 13:4370-4381, 1994). The injection of KA (30 mg/kg, i.p.) caused a large induction of AP-1 transcriptional activity in the hippocampus of wild-type mice, as evidenced by the induction of luciferase activity.
The relative luciferase activity in the hippocampus and cerebellum prepared from wild-type (+/+) and JNK3 (−/−) mice was measured following KA injection. Each time point represents the mean of three to five (+SEM) individual animals. […]

hippocampal neurons [2] = test: Kainate-induced neuronal damage in the hippocampus (Nissl's stain, GFAP, TUNEL, toluidine stain)
Experimental: These experiments were performed as follows. Wild-type and JNK3 (−/−) mice were killed and fixed by transcardial perfusion of 4% paraformaldehyde and 1.5% glutaraldehyde three days after the injection of KA (30 mg/kg, i.p.). Semithin and thin sections of brain were prepared using a Vibratome and embedded in Epon. Tissue blocks were prepared using a microtome with a diamond tube for 1 μm-thick semithin sections examined by toluidine blue staining, and for ultrathin sections examined by electron microscopy. Nissl's stain was used for initial examination of damage to the hippocampus (Kluver et al., J. Neuropath. Exp. Neuro. 12:400-403, 1953). GFAP immunocytochemistry was also used to assess cell destruction in the hippocampus (Hsu et al., supra). Nissl's staining was also performed as described above. TUNEL assays, used to evaluate apoptosis, were performed using cryostat sections (50 μm) of cerebral hemispheres that were cryoprotected with sucrose. The TUNEL assay was modified from the terminal deoxynucleotidyl transferase (TdT)-mediated dUTP nick end labeling assay (Gavrieli et al., J. Cell. Biol. 119:493-501, 1992). Briefly, tissue sections, directly mounted on a salinated slide, were permeablized with 2% TRITON® X-100 (20 minutes at room temperature) and then incubated for nick end-labeling for 2 hours at 37° C. using 0.32 U/μl TdT (Boehringer Mannheim, cat# 220582) and 2 μM digoxigenin-11-dUTP (Boehringer Mannheim, cat# 1573152) in a final volume of 40 μl. The tissues were incubated with anti-digoxigenin antibody (Boehringer Mannheim, cat# 1333062) diluted 500-fold, and processed for immunocytochemistry using standard procedures (Hsu et al., supra).
The damage to the hippocampus caused by KA was initially examined by Nissl's stain. The KA-induced cell loss caused either a breach of staining of the pyramidal neurons in the CA3 region or a diffuse sparse staining throughout the CA1 subfield. […] Groups of small pyknotic nuclei and positively TUNEL-labeled cells were found in the hippocampal CA3 subfield devoid of Nissl's staining. […] Since the TUNEL method and the pyknosis morphology only indicated the extent of cell damage at one time point of a dynamic process, immunostaining of damage-induced GFAP was also used as an independent assessment of the extent of cell destruction in the hippocampus. Consistent with the patterns of Nissl's, toluidine, and TUNEL staining, an increased number of strongly GFAP-labeled astrocytes was found either in the hippocampal CA3 or CAl regions. Thus, a combination of Nissl's stain, GFAP immunocytochemistry, TUNEL method, and toluidine stain of semithin sections was used to classify the KA-induced damage in the mouse hippocampus.
A total of 17 wild-type and 18 JNK3(−/−) mice were examined. The table was compiled from two sets of data. First, wild-type (n=11) and JNK3 (−/−) (n=10) mice were sacrificed on the fifth day after a single injection of KA (30 mg/kg, i.p.). Second, wild-type (n=6) and JNK3 (−/−) (n=8) mice received an injection of KA (30 mg/kg, i. p.) for five consecutive days and examined two days following the final injection. […] The ratio of no cell loss/CA3 lesion/CA3+CA1 lesion was 2/7/2 in the single-injection experiments, and 2/2/2 in the multiple injection experiments.

hippocampal neurons [3] = test: as above; details: KA 45 mg/kg, JNK2(−/−) mice as printed
mice [4] = test: KA-induced seizures in wild-type and JNK3(−/−) mice
Experimental: JNK3(−/−) mice and their wild-type littermates were injected intraperitoneally (i.p.) with 30 mg/kg KA to induce seizures (Ben-Ari, supra). In wild-type mice, the administration of KA first induced “staring spells” with abnormal body posture, then progressed to head nodding (“wet-dog shakes”), fore-paw tremor, rearing, loss of postural control, and eventually, continuous convulsions. […] Wild-type and heterozygous mice developed motor symptoms of seizures, including rearing, at 30 to 40 minutes post-injection. The JNK3 (−/−) mice, in contrast, developed much milder symptoms, mainly consisting of “staring” spells and occasional myoclonic tremors. […] Further, JNK3(−/−) mice recovered from the drug administration more rapidly than wild-type mice (FIG. 7). Seizure classifications as shown in FIGS. 7 and 8 are: 1, arrest of motion; 2, myoclonic jerks of the head and neck, with brief twitching movements; 3, unilateral clonic activity; 4, bilateral forelimb tonic and clonic activity; and 5, generalized tonic-clonic activity with loss of postural tone, often resulting in death.

[5] = tested on: c-Jun phosphorylated at Ser-73; test: KA-induced phosphorylation of c-Jun in hippocampus (immunocytochemistry); details: KA 30 mg/kg i.p., two hours after injection
Experimental: To further define this phenomenon, the distribution of KA-induced c-Fos and c-Jun immunoreactivity along the synaptic circuit of the hippocampus was examined. In these experiments, homozygous mutant and control wild-type mice were killed and fixed by transcardial perfusion of 4% paraformaldehyde at 2 or 6 hours after the injection of KA (30 mg/kg, i.p.). Brains from both groups were removed, post-fixed for one hour, and sectioned on a Vibratome ([…]). Tissue sections were processed by immunocytochemistry to detect the expression of c-June (Santa Cruz, cat# sc-45), c-Fos (Santa Cruz, cat# sc-52), and phospho-specific c-Jun (Ser-73) (New England Biolabs, #9164S). Sections were floated in a solution of the primary antibody (diluted 200× in PBS) and incubated overnight at room temperature. Secondary antibody incubation, avidin-biotin conjugated peroxidase (Vectastain Elite ABC kit, Vector Lab.), and DAB (3, 3′-diaminobenzidine, Sigma) reactions were performed using standard procedures (Hsu et al., supra). In the absence of KA, there was no detectable c-Fos expression and only a few c-Jun-positive cells within the dentate gyrus. […]
In addition, there was a dynamic change of the distribution of phosphorylated c-Jun in the wild type mouse hippocampus. […] In contrast, no labeling of phosphorylated c-Jun was detected in the JNK3(−/−) mice at the same time point. […]

mice [6] = test: Pentetrazole (PTZ)-induced seizures in wild-type and JNK3(−/−) mice
Excerpt: Since the resistance to KA-induced seizures varied between littermates (+/+ and +/− are less resistant than −/− mice), the observed differential susceptibility cannot be attributed to a difference between mouse strains (Schauwecker and Steward, Proc. Nat. Acad. Sci. USA 94:4103-4108, 1997). However, the resistance of JNK3 deficient mice to KA-induced seizures could be due to decreased drug penetration across the blood-brain barrier or an increased GABA (gamma-aminobutyric acid) inhibitory postsynaptic potential (IPSP), or the ablation of a specific signal transduction pathway mediated by the JNK3 protein kinase. To distinguish between these possibilities, the response of JNK3 (−/−) and wild-type mice to another epileptogenic agent, pentetrazole (PTZ) (Sigma), was examined. PTZ was selected due to its ability to induce seizures by blocking the GABA-IPSPs (Ben-Ari et al., Neurosci. 6:1361-1391, 1981).
Thus, the differential susceptibility to KA toxicity in JNK3(−/−) mice can neither be explained as a consequence of poor drug delivery to the nervous system nor by potent GABA-IPSPs in the neural circuit. Furthermore, we examined the expression of the kainate-type glutamate receptor subunits GluR5-7 (Pharmingen cat. No. 60006E) by immunocytochemistry using standard methods.

[7] = KA 30 mg/kg i.p., JNK3 genotype +/+
[8] = KA 30 mg/kg i.p., JNK3 genotype −/−
[9] = KA 30 mg/kg i.p., wild-type mice

## C=C(C)[C@H]1CN[C@H](C(=O)O)[C@H]1CC(=O)O [KA, kainic acid]
[1]; 15 hours after injection
  AP-1 activity in hippocampus, wild-type compared with JNK3(−/−) mice: approximately four-fold greater
[1]; three days after injection
  AP-1 activity in hippocampus, wild-type compared with JNK3(−/−) mice: more than six times higher
[1]; wild-type AP1-luc mice
  time of peak luciferase activity in hippocampus: three days
Hippocampal neurons [2]; KA 30 mg/kg i.p., JNK3(−/−) mice (n=18)
  hippocampal damage: no apparent hippocampal damage
Hippocampal neurons [2]; [7]
  Including CA1 cell loss: 4 number of animals
  No perceivable cell loss: 4 number of animals
  Selective CA3 cell loss: 9 number of animals
Hippocampal neurons [2]; [8]
  Including CA1 cell loss: 0 number of animals
  No perceivable cell loss: 18 number of animals
  Selective CA3 cell loss: 0 number of animals
Hippocampal neurons [2]; [9]
  animals with damage of the hippocampal CA3 region: 53%
  animals with damage of the hippocampal CA3 region (fraction): 9/17
  animals with massive cell loss throughout the entire hippocampal CA1 region: 24%
  animals with massive cell loss throughout the entire hippocampal CA1 region (fraction): 4/17
Hippocampal neurons [2]; wild-type mice, KA 30 mg/kg i.p. for five consecutive days, examined two days after final injection
  ratio of no cell loss/CA3 lesion/CA3+CA1 lesion: 2/2/2
Hippocampal neurons [2]; wild-type mice, single injection of KA 30 mg/kg i.p., sacrificed on the fifth day
  ratio of no cell loss/CA3 lesion/CA3+CA1 lesion: 2/7/2
Hippocampal neurons [3]
  animals with cell damage (fraction): 2/15
Hippocampal neurons [3]; p<0.005
  animals with cell damage: 13%
Mice [4]; KA 30 mg/kg i.p., JNK3(−/−) mice
  seizure severity: did not develop grand mal seizures
Mice [4]; [9]
  time at which seizure activities subsided: one hour after injection
Mice [4]; KA 45 mg/kg i.p., JNK3(−/−) mice
  survival: all of the JNK3(−/−) mice survived
Mice [4]; KA 45 mg/kg i.p., wild-type mice
  mice that died from continuous tonic clonic convulsions: more than 60%
[5]; JNK3(−/−) mice
  phosphorylated c-Jun in hippocampus: only a trace amount
[5]; wild-type mice
  phosphorylated c-Jun in the dentate gyrus and CA3/CA4 region of the hippocampus: high level of phosphorylated c-Jun

## C1CCc2nnnn2CC1 [PTZ, pentetrazole]
Mice [6]; PTZ 30, 40, 50, 60 mg/kg i.p.
  seizure severity, JNK3(−/−) mice versus wild-type littermates: comparable severity
Mice [6]; PTZ i.p.
  time to abrupt general tonic-clonic seizures after injection: within five minutes
